By IC50 is commonly meant the midpoint of a concentration-inhibition curve. A low value points to inhibition by little substance.

Drawing on publication PMC12682947, “Identification of New KCNT1‐Epilepsy Drugs by In Silico, Cell, and Drosophila Modeling” (Annals of Neurology, 2025), this text covers IC50 for three molecules.

In the experiment the target is T1, R398Q mutant KCNT1 channels (Homo sapiens, UniProt Q5JUK3, R379Q).
T1 construct: YFP-6His; expressed in transfected cells; host or cells: HEK293T
T1 sequence (Q5JUK3 1-1235 isoform Q5JUK3-3 R398Q): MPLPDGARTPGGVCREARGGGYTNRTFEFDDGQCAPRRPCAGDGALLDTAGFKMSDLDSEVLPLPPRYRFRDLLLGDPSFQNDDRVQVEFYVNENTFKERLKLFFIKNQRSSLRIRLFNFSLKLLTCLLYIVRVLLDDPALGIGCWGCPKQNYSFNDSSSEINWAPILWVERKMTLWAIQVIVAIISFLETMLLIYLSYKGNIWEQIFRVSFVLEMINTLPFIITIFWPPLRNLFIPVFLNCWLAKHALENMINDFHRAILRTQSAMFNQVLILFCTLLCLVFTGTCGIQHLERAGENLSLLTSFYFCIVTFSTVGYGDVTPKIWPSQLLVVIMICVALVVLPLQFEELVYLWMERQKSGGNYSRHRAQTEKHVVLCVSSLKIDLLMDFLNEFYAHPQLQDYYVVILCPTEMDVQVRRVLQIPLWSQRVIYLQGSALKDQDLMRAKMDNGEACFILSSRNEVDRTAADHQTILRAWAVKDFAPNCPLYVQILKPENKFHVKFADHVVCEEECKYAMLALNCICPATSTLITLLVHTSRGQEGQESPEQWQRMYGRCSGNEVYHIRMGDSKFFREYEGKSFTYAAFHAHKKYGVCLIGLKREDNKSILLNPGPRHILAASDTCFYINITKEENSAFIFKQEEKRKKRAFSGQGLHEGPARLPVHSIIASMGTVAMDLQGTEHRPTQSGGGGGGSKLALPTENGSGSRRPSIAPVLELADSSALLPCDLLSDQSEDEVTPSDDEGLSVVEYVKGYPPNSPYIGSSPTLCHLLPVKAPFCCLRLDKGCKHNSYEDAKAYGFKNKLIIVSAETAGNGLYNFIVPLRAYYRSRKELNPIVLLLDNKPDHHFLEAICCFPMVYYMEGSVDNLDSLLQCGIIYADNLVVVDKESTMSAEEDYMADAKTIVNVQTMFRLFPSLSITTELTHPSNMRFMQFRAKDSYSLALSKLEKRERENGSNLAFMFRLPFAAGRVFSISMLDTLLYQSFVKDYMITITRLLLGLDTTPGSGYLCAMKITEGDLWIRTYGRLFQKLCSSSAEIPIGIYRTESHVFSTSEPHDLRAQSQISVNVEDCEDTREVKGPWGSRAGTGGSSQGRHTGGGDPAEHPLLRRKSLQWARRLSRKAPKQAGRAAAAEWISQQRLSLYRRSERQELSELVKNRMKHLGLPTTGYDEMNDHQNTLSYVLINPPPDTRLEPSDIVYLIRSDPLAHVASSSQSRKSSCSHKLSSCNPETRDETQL
Nature of the experiment: Inside-out patch clamp of HEK293T cells expressing R398Q KCNT1. In kind it is cell-based. To be noted: inside-out patches, mean ± SEM. The method, then:
The CHO cells were cultured in Dulbecco's modified Eagle's Medium (ThermoFisher, UK) supplemented with 10% (v/v) fetal bovine serum, 50 U/ml penicillin and 0.05 mg/ml streptomycin, and incubated at 37°C in 5% CO2 atmosphere. For whole cell recording of WT/Y796H KCNT1, CHO cells were transiently co‐transfected with concatemeric WT/Y796H and EYFP, as described previously.[29] For electrophysiological experiments, cells were plated onto borosilicate glass cover slips and used 2 to 4 days later. Human embryonic kidney 293T cells (HEK293T) were cultured in the same manner, but with medium supplemented with 2 mM L‐glutamine, and 1% (v/v) nonessential amino acids. For excised inside‐out recording of homomeric WT or mutant YFP‐tagged KCNT1, HEK293T cells plated on glass cover slips were transfected using Attractene Transfection Reagent (Qiagen, Germany) according to the manufacturer's instructions and used 2 to 3 days later.
Inside‐out patch clamp recordings were made at room temperature (23°C) from transiently transfected HEK293T cells, as described previously.[11] The pipette solution contained, in mM, 140 NaCl, 4 KCl, 2 CaCl2, 2 MgCl2, and 10 HEPES adjusted to pH 7.4 with NaOH. […] KCNT1 currents were recorded using 2 voltage protocols, depending on the number of active channels in the patch before drug application. Macroscopic currents (number of active channels > 15) were recorded in response to 100 ms voltage ramps between −120 and 120 mV applied every 2 seconds from a holding potential of −78 mV. […] With a lower number of active channels in the patch (3–15), current traces were recorded in response to 15‐second voltage steps to −20, 0, and 20 mV from a holding potential of −78 mV. Currents recorded at each voltage and each drug concentration were averaged over the duration of the trace and normalized to the average amplitudes of the corresponding current traces in drug‐free solution. […] Single channel data were analyzed using Ana software developed by Dr Michael Pusch (Istituto di Biofisica, Genova, Italy; http://users.ge.ibf.cnr.it/pusch/programs-mik.htm). […]
(In general: Patch clamp records ionic current or voltage across a cell membrane.)

Where a name gives a salt, the structure may show the parent alone.

`O=C(OCCN1CCN(c2cccc(C(F)(F)F)c2)CC1)c1ccccc1Nc1ccnc2cc(C(F)(F)F)ccc12` [antrafenine] gave a half-maximal inhibitory concentration (IC50) of 30.7 ± 7.4 nM.

`Cc1c(O)cccc1C(=O)N[C@@H](CSc1ccccc1)[C@H](O)CN1C[C@H]2CCCC[C@H]2C[C@H]1C(=O)NC(C)(C)C` [nelfinavir mesylate] returned an IC50 of 11.2 ± 2.2 nM.

`CC(C)c1c(C(=O)Nc2ccccc2)c(-c2ccccc2)c(-c2ccc(F)cc2)n1CC[C@@H](O)C[C@@H](O)CC(=O)O` [atorvastatin] had an IC50 of 4500 ± 1700 nM.
